Data reported in article PMC9469100, “Turning Nonselective Inhibitors of Type I Protein Arginine Methyltransferases into Potent and Selective Inhibitors of Protein Arginine Methyltransferase 4 through a Deconstruction–Reconstruction and Fragment-Growing Approach” (Journal of Medicinal Chemistry, 2022).
Where two headings read alike, the source gives them in different places.

Target: PRMT1 (Homo sapiens, UniProt Q99873)
Assay: AlphaLISA PRMT1 activity assay (H4R3me)
Details: for IC50: AlphaLISA, hPRMT1, 10-concentration mode, threefold dilutions starting at 100 μM; for LE: ligand efficiency calculated from PRMT1 IC50 as a surrogate for KD
[1] = read-out: % PRMT1 residual activ. @ 100 μM
[2] = read-out: % PRMT1 residual activity at 100 uM

Sequence of PRMT1 (Q99873 whole entry): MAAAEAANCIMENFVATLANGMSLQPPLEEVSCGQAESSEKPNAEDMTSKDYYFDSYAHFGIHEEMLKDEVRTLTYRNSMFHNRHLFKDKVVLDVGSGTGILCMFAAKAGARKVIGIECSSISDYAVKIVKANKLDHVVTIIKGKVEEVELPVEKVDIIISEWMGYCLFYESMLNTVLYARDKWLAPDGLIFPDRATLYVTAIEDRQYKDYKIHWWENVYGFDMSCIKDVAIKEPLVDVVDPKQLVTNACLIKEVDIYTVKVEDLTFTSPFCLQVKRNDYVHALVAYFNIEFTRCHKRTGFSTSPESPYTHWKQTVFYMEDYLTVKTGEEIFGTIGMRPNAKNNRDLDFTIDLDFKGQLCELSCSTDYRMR
Procedure: Then, we resolved to determine their effect on the catalytic activity of human recombinant PRMT1, chosen as representative of class I PRMTs. […] PRMT1 activity assays were performed by taking advantage of the AlphaLISA homogeneous proximity assay.
The reaction was incubated for 60 min, and then it was stopped by the addition of 5 μL of antimethyl-histone H4 arginine 3 (H4R3me) AlphaLISA acceptor beads (PerkinElmer, #AL150) (final concentration, 20 μg/mL) diluted in Epigenetic Buffer 1X (PerkinElmer, #AL008).
For each incubation step, the OptiPlate was sealed with protective foil to prevent evaporation and contamination. Donor and acceptor beads were added in subdued light.
The 100% activity (positive control) was reached using the vehicle (DMSO) while the 0% activity (negative control) was obtained without the protein. Data were analyzed using Excel software. Values obtained for each compound are mean ± SD determined for three separate experiments.

CNC(=N)NCCCNC(=O)Nc1ccc2cc(C(=O)OC)cc(O)c2c1 [7d, Methyl 4-Hydroxy-6-(3-(3-(3-methylguanidino)propyl)ureido)-2-naphthoate] gave an IC50 of 400 nM, an LE of 0.33 and a remaining activity at 100 µM [1] of 0.2 ± 0.1%. It also gave a remaining activity at 100 µM [2] of 0.2 ± 0.1%.

In the case of CN(C)C(=N)NCCCCC(=O)Nc1ccc2cc(C(=O)O)cc(O)c2c1 [6e, 6-(5-(3,3-Dimethylguanidino)pentanamido)-4-hydroxy-2-naphthoic Acid], the remaining activity at 100 µM [1] is reported as 36.8 ± 0.3% and the remaining activity at 100 µM [2] is reported as 36.8 ± 0.3%.

For COC(=O)c1cc(O)c2cc(NC(=O)[C@H](CCSC)NC(=O)Nc3ccc(OC)cc3)ccc2c1 [9d, Methyl (S)-4-Hydroxy-6-(2-(3-(4-methoxyphenyl)ureido)-4-(methylthio)butanamido)-2-naphthoate], the remaining activity at 100 µM [1] was 75.9 ± 4.8% and the remaining activity at 100 µM [2] was 75.9 ± 4.8%.

For COC(=O)c1cc(O)c2cc(NC(=O)NCCCCCNC(=N)N)ccc2c1 [7c, Methyl 6-(3-(5-Guanidinopentyl)ureido)-4-hydroxy-2-naphthoate], the IC50 was 1200 nM, the LE was 0.30 and the remaining activity at 100 µM [1] was -0.91 ± 0.1%. The remaining activity at 100 µM [2] was -0.91 ± 0.1%.

COC(=O)c1cc(O)c2cc(NC(=O)NCCCNC(=N)N)ccc2c1 [7a, Methyl 6-(3-(3-Guanidinopropyl)ureido)-4-hydroxy-2-naphthoate] was tested, and the IC50 was 1600 nM, the LE was 0.31 and the remaining activity at 100 µM [1] was 0.4 ± 0.1%. It also gave a remaining activity at 100 µM [2] of 0.4 ± 0.1%.

Compound CNC(=N)NCCCCCC(=O)Nc1ccc2cc(C(=O)O)cc(O)c2c1 [6d, 4-Hydroxy-6-(6-(3-methylguanidino)hexanamido)-2-naphthoic Acid] has a remaining activity at 100 µM [1] of 50.4 ± 0.2% and a remaining activity at 100 µM [2] of 50.4 ± 0.2%.

For N=C(N)NCCCCC(=O)Nc1ccc2cc(C(=O)O)cc(O)c2c1 [6a, 6-(5-Guanidinopentanamido)-4-hydroxy-2-naphthoic Acid], the remaining activity at 100 µM [1] was 69.7 ± 2% and the remaining activity at 100 µM [2] was 69.7 ± 2%.

O=C(NCCCn1ccnc1)Nc1ccc2cc(C(=O)O)cc(O)c2c1 [8b, 6-(3-(3-(1H-Imidazol-1-yl)propyl)ureido)-4-hydroxy-2-naphthoic Acid] was tested, and the remaining activity at 100 µM [1] was 36.9 ± 10.5% and the remaining activity at 100 µM [2] was 36.9 ± 10.5%.

Work on COC(=O)c1cc(O)c2cc(NC(=O)[C@@H](N)CCCNC(=N)N)ccc2c1 [11c, Methyl (S)-6-(2-Amino-5-guanidinopentanamido)-4-hydroxy-2-naphthoate] yielded a remaining activity at 100 µM [1] of 34.2 ± 5.1% and a remaining activity at 100 µM [2] of 34.2 ± 5.1%.

Compound COC(=O)c1cc(O)c2cc(NC(=O)CCCCNC3=NCCN3)ccc2c1 [5g, Methyl 6-(5-((4,5-Dihydro-1H-imidazol-2-yl)amino)pentanamido)-4-hydroxy-2-naphthoate] has a remaining activity at 100 µM [1] of 122 ± 5.8% and a remaining activity at 100 µM [2] of 122 ± 5.8%.

For COC(=O)c1cc(O)c2cc(NC(=O)CCCCNC(=N)N)ccc2c1 [5a, Methyl 6-(5-Guanidinopentanamido)-4-hydroxy-2-naphthoate], the remaining activity at 100 µM [1] was 35 ± 0.3% and the remaining activity at 100 µM [2] was 35 ± 0.3%.

COC(=O)c1cc(O)c2cc(NC(=O)CCCCCCNC(=N)N)ccc2c1 [5c, Methyl 6-(7-Guanidinoheptanamido)-4-hydroxy-2-naphthoate] was tested, and the IC50 was 3800 nM, the LE was 0.27 and the remaining activity at 100 µM [1] was -0.49 ± 0.1%. The remaining activity at 100 µM [2] was -0.49 ± 0.1%.

COC(=O)c1cc(O)c2cc(NC(=O)[C@@H](N)CCSC)ccc2c1 [9c, Methyl (S)-6-(2-Amino-4-(methylthio)butanamido)-4-hydroxy-2-naphthoate] gave a remaining activity at 100 µM [1] of 92.1 ± 15.8% and a remaining activity at 100 µM [2] of 92.1 ± 15.8%.

Compound COC(=O)c1cc(O)c2cc(NC(=O)NCCCn3ccnc3)ccc2c1 [7f, Methyl 6-(3-(3-(1H-Imidazol-1-yl)propyl)ureido)-4-hydroxy-2-naphthoate] has a remaining activity at 100 µM [1] of 65.6 ± 2.1% and a remaining activity at 100 µM [2] of 65.6 ± 2.1%.

In the case of O=C(CCCCNC1=NCCN1)Nc1ccc2cc(C(=O)O)cc(O)c2c1 [6f, 6-(5-((4,5-Dihydro-1H-imidazol-2-yl)amino)pentanamido)-4-hydroxy-2-naphthoic Acid], the remaining activity at 100 µM [1] is reported as 25.1 ± 1.5% and the remaining activity at 100 µM [2] is reported as 25.1 ± 1.5%.
